Calls of active or inactive are those of the source. No cut-off for these calls is given here.
Experiments:
[1] = Displacement of [125I]-IMPY from amyloid beta (1 to 42) after 2 hrs by gamma counting
Blood [2] = assay: Biodistribution in ddY mouse blood at 0.9 uCi, iv after 2 mins by gamma counting; type: ADME, organism-based; conditions: in vivo
Brain [3] = assay: Biodistribution in ddY mouse brain at 0.9 uCi, iv after 2 mins by gamma counting; type: ADME, organism-based; conditions: in vivo
Heart [4] = assay: Biodistribution in ddY mouse heart at 0.9 uCi, iv after 2 mins by gamma counting; type: ADME, organism-based; conditions: in vivo
Liver [5] = assay: Biodistribution in ddY mouse liver at 0.9 uCi, iv after 2 mins by gamma counting; type: ADME, organism-based; conditions: in vivo
Spleen [6] = assay: Biodistribution in ddY mouse spleen at 0.9 uCi, iv after 2 mins by gamma counting; type: ADME, organism-based; conditions: in vivo
Lung [7] = assay: Biodistribution in ddY mouse lung at 0.9 uCi, iv after 2 mins by gamma counting; type: ADME, organism-based; conditions: in vivo
Kidney [8] = assay: Biodistribution in ddY mouse kidney at 0.9 uCi, iv after 2 mins by gamma counting; type: ADME, organism-based; conditions: in vivo
Stomach [9] = assay: Biodistribution in ddY mouse stomach assessed per organ at 0.9 uCi, iv after 2 mins by gamma counting; type: ADME, organism-based; conditions: in vivo
Intestine [10] = assay: Biodistribution in ddY mouse intestine at 0.9 uCi, iv after 2 mins by gamma counting; type: ADME, organism-based; conditions: in vivo
Mus musculus [11] = assay: Biodistribution in ddY mouse thyroid assessed per organ at 0.9 uCi, iv after 2 mins by gamma counting; type: ADME, organism-based, Thyroid gland; conditions: in vivo
Blood [12] = assay: Biodistribution in ddY mouse blood at 0.9 uCi, iv after 15 mins by gamma counting; type: ADME, organism-based; conditions: in vivo, 0.25 h
Brain [13] = assay: Biodistribution in ddY mouse brain at 0.9 uCi, iv after 15 mins by gamma counting; type: ADME, organism-based; conditions: in vivo, 0.25 h
Heart [14] = assay: Biodistribution in ddY mouse heart at 0.9 uCi, iv after 15 mins by gamma counting; type: ADME, organism-based; conditions: in vivo, 0.25 h
Liver [15] = assay: Biodistribution in ddY mouse liver at 0.9 uCi, iv after 15 mins by gamma counting; type: ADME, organism-based; conditions: in vivo, 0.25 h
Spleen [16] = assay: Biodistribution in ddY mouse spleen at 0.9 uCi, iv after 15 mins by gamma counting; type: ADME, organism-based; conditions: in vivo, 0.25 h
Lung [17] = assay: Biodistribution in ddY mouse lung at 0.9 uCi, iv after 15 mins by gamma counting; type: ADME, organism-based; conditions: in vivo, 0.25 h
Kidney [18] = assay: Biodistribution in ddY mouse kidney at 0.9 uCi, iv after 15 mins by gamma counting; type: ADME, organism-based; conditions: in vivo, 0.25 h
Stomach [19] = assay: Biodistribution in ddY mouse stomach assessed per organ at 0.9 uCi, iv after 15 mins by gamma counting; type: ADME, organism-based; conditions: in vivo, 0.25 h
Intestine [20] = assay: Biodistribution in ddY mouse intestine at 0.9 uCi, iv after 15 mins by gamma counting; type: ADME, organism-based; conditions: in vivo, 0.25 h
Mus musculus [21] = assay: Biodistribution in ddY mouse thyroid assessed per organ at 0.9 uCi, iv after 15 mins by gamma counting; type: ADME, organism-based, Thyroid gland; conditions: in vivo, 0.25 h
Blood [22] = assay: Biodistribution in ddY mouse blood at 0.9 uCi, iv after 30 mins by gamma counting; type: ADME, organism-based; conditions: in vivo, 0.5 h
Brain [23] = assay: Biodistribution in ddY mouse brain at 0.9 uCi, iv after 30 mins by gamma counting; type: ADME, organism-based; conditions: in vivo, 0.5 h
Heart [24] = assay: Biodistribution in ddY mouse heart at 0.9 uCi, iv after 30 mins by gamma counting; type: ADME, organism-based; conditions: in vivo, 0.5 h
Liver [25] = assay: Biodistribution in ddY mouse liver at 0.9 uCi, iv after 30 mins by gamma counting; type: ADME, organism-based; conditions: in vivo, 0.5 h
Spleen [26] = assay: Biodistribution in ddY mouse spleen at 0.9 uCi, iv after 30 mins by gamma counting; type: ADME, organism-based; conditions: in vivo, 0.5 h
Lung [27] = assay: Biodistribution in ddY mouse lung at 0.9 uCi, iv after 30 mins by gamma counting; type: ADME, organism-based; conditions: in vivo, 0.5 h
Kidney [28] = assay: Biodistribution in ddY mouse kidney at 0.9 uCi, iv after 30 mins by gamma counting; type: ADME, organism-based; conditions: in vivo, 0.5 h
Stomach [29] = assay: Biodistribution in ddY mouse stomach assessed per organ at 0.9 uCi, iv after 30 mins by gamma counting; type: ADME, organism-based; conditions: in vivo, 0.5 h
Intestine [30] = assay: Biodistribution in ddY mouse intestine at 0.9 uCi, iv after 30 mins by gamma counting; type: ADME, organism-based; conditions: in vivo, 0.5 h
Mus musculus [31] = assay: Biodistribution in ddY mouse thyroid assessed per organ at 0.9 uCi, iv after 30 mins by gamma counting; type: ADME, organism-based, Thyroid gland; conditions: in vivo, 0.5 h
Blood [32] = assay: Biodistribution in ddY mouse blood at 0.9 uCi, iv after 60 mins by gamma counting; type: ADME, organism-based; conditions: in vivo, 1 h
Brain [33] = assay: Biodistribution in ddY mouse brain at 0.9 uCi, iv after 60 mins by gamma counting; type: ADME, organism-based; conditions: in vivo, 1 h
Heart [34] = assay: Biodistribution in ddY mouse heart at 0.9 uCi, iv after 60 mins by gamma counting; type: ADME, organism-based; conditions: in vivo, 1 h
Liver [35] = assay: Biodistribution in ddY mouse liver at 0.9 uCi, iv after 60 mins by gamma counting; type: ADME, organism-based; conditions: in vivo, 1 h
Spleen [36] = assay: Biodistribution in ddY mouse spleen at 0.9 uCi, iv after 60 mins by gamma counting; type: ADME, organism-based; conditions: in vivo, 1 h
Lung [37] = assay: Biodistribution in ddY mouse lung at 0.9 uCi, iv after 60 mins by gamma counting; type: ADME, organism-based; conditions: in vivo, 1 h
Kidney [38] = assay: Biodistribution in ddY mouse kidney at 0.9 uCi, iv after 60 mins by gamma counting; type: ADME, organism-based; conditions: in vivo, 1 h
Stomach [39] = assay: Biodistribution in ddY mouse stomach assessed per organ at 0.9 uCi, iv after 60 mins by gamma counting; type: ADME, organism-based; conditions: in vivo, 1 h
Intestine [40] = assay: Biodistribution in ddY mouse intestine at 0.9 uCi, iv after 60 mins by gamma counting; type: ADME, organism-based; conditions: in vivo, 1 h
Mus musculus [41] = assay: Biodistribution in ddY mouse thyroid assessed per organ at 0.9 uCi, iv after 60 mins by gamma counting; type: ADME, organism-based, Thyroid gland; conditions: in vivo, 1 h
Blood [42] = assay: Biodistribution in ddY mouse blood at 0.9 uCi, iv after 120 mins by gamma counting; type: ADME, organism-based; conditions: in vivo, 2 h
Brain [43] = assay: Biodistribution in ddY mouse brain at 0.9 uCi, iv after 120 mins by gamma counting; type: ADME, organism-based; conditions: in vivo, 2 h
Heart [44] = assay: Biodistribution in ddY mouse heart at 0.9 uCi, iv after 120 mins by gamma counting; type: ADME, organism-based; conditions: in vivo, 2 h
Liver [45] = assay: Biodistribution in ddY mouse liver at 0.9 uCi, iv after 120 mins by gamma counting; type: ADME, organism-based; conditions: in vivo, 2 h
Spleen [46] = assay: Biodistribution in ddY mouse spleen at 0.9 uCi, iv after 120 mins by gamma counting; type: ADME, organism-based; conditions: in vivo, 2 h
Lung [47] = assay: Biodistribution in ddY mouse lung at 0.9 uCi, iv after 120 mins by gamma counting; type: ADME, organism-based; conditions: in vivo, 2 h
Kidney [48] = assay: Biodistribution in ddY mouse kidney at 0.9 uCi, iv after 120 mins by gamma counting; type: ADME, organism-based; conditions: in vivo, 2 h
Stomach [49] = assay: Biodistribution in ddY mouse stomach assessed per organ at 0.9 uCi, iv after 120 mins by gamma counting; type: ADME, organism-based; conditions: in vivo, 2 h
Intestine [50] = assay: Biodistribution in ddY mouse intestine at 0.9 uCi, iv after 120 mins by gamma counting; type: ADME, organism-based; conditions: in vivo, 2 h
Mus musculus [51] = assay: Biodistribution in ddY mouse thyroid assessed per organ at 0.9 uCi, iv after 120 mins by gamma counting; type: ADME, organism-based, Thyroid gland; conditions: in vivo, 2 h
Brain [52] = assay: Ratio of drug level in brain after 2 mins to drug level in brain after 30 mins ddY mouse at 0.9 uCi, iv; type: ADME, organism-based; conditions: in vivo
[53] = Lipophilicity, log D of the compound; type: physicochemical; conditions: octanol/water
Mus musculus [54] = species on record: Mus musculus; assay: Binding affinity to beta-amyloid in APP/PS1 transgenic C57 mouse brain at 5 uCi/[…] after 1 hr by autoradiography; type: tissue-based; conditions: tested as the 125I-labelled form

SMILES: CN(C)c1ccc(C(=O)c2cc3cc(Br)ccc3o2)cc1
- Ki [1]: 8.8 nM

SMILES: Nc1ccc(C(=O)c2cc3cc(Br)ccc3o2)cc1
- Ki [1]: 157 nM

SMILES: O=C(c1ccc([N+](=O)[O-])cc1)c1cc2cc(Br)ccc2o1
- Ki [1]: > 1000 nM

SMILES: CN(C)c1ccc(C(=O)c2cc3cc([125I])ccc3o2)cc1
- Drug uptake (Blood [2]): 2.56 % ID/g
- Drug uptake (Brain [3]): 3.53 % ID/g
- Drug uptake (Heart [4]): 7.01 % ID/g
- Drug uptake (Liver [5]): 16.19 % ID/g
- Drug uptake (Spleen [6]): 2.75 % ID/g
- Drug uptake (Lung [7]): 7.34 % ID/g
- Drug uptake (Kidney [8]): 10.26 % ID/g
- Drug uptake (Stomach [9]): 0.95 %ID
- Drug uptake (Intestine [10]): 3.14 % ID/g
- Drug uptake (Mus musculus [11]): 0.02 %ID
- Drug uptake (Blood [12]): 1.16 % ID/g
- Drug uptake (Brain [13]): 2.38 % ID/g
- Drug uptake (Heart [14]): 1.45 % ID/g
- Drug uptake (Liver [15]): 11 % ID/g
- Drug uptake (Spleen [16]): 1.59 % ID/g
- Drug uptake (Lung [17]): 2.2 % ID/g
- Drug uptake (Kidney [18]): 3.84 % ID/g
- Drug uptake (Stomach [19]): 1.54 %ID
- Drug uptake (Intestine [20]): 11.77 % ID/g
- Drug uptake (Mus musculus [21]): 0.05 %ID
- Drug uptake (Blood [22]): 1.07 % ID/g
- Drug uptake (Brain [23]): 1.51 % ID/g
- Drug uptake (Heart [24]): 1.15 % ID/g
- Drug uptake (Liver [25]): 6.7 % ID/g
- Drug uptake (Spleen [26]): 0.94 % ID/g
- Drug uptake (Lung [27]): 1.61 % ID/g
- Drug uptake (Kidney [28]): 4.28 % ID/g
- Drug uptake (Stomach [29]): 2.6 %ID
- Drug uptake (Intestine [30]): 21.81 % ID/g
- Drug uptake (Mus musculus [31]): 0.18 %ID
- Drug uptake (Blood [32]): 0.82 % ID/g
- Drug uptake (Brain [33]): 0.87 % ID/g
- Drug uptake (Heart [34]): 0.74 % ID/g
- Drug uptake (Liver [35]): 5.09 % ID/g
- Drug uptake (Spleen [36]): 0.66 % ID/g
- Drug uptake (Lung [37]): 0.94 % ID/g
- Drug uptake (Kidney [38]): 1.9 % ID/g
- Drug uptake (Stomach [39]): 3.1 %ID
- Drug uptake (Intestine [40]): 20.88 % ID/g
- Drug uptake (Mus musculus [41]): 0.46 %ID
- Drug uptake (Blood [42]): 0.63 % ID/g
- Drug uptake (Brain [43]): 0.41 % ID/g
- Drug uptake (Heart [44]): 0.49 % ID/g
- Drug uptake (Liver [45]): 3.59 % ID/g
- Drug uptake (Spleen [46]): 0.43 % ID/g
- Drug uptake (Lung [47]): 0.79 % ID/g
- Drug uptake (Kidney [48]): 1.64 % ID/g
- Drug uptake (Stomach [49]): 3.76 %ID
- Drug uptake (Intestine [50]): 25.19 % ID/g
- Drug uptake (Mus musculus [51]): 0.8 %ID
- Ratio (Brain [52]): 2.34
- logD [53]: 4.4

SMILES: O=C(c1ccc([N+](=O)[O-])cc1)c1cc2cc(I)ccc2o1
- Ki [1]: > 1000 nM

SMILES: CNc1ccc(C(=O)c2cc3cc(Br)ccc3o2)cc1
- Ki [1]: 44.9 nM

SMILES: CNc1ccc(C(=O)c2cc3cc(I)ccc3o2)cc1
- Ki [1]: 34.5 nM
- Activity (Mus musculus [54]): Active

SMILES: Nc1ccc(C(=O)c2cc3cc(I)ccc3o2)cc1
- Ki [1]: 133 nM

SMILES: CN(C)c1ccc(C(=O)c2cc3cc(I)ccc3o2)cc1
- Ki [1]: 6.6 nM
- Activity (Mus musculus [54]): Active

— ChEMBL document CHEMBL1795303, “Synthesis and evaluation of benzofuran-2-yl(phenyl)methanone derivatives as ligands for β-amyloid plaques” (Bioorg Med Chem, 2011)
